Data from EP0053325A1, “Antimicrobic triazole derivatives” (BAYER AG, priority 1980, dated 1982).

Tests used:
Candida = experiment: Antimycotic in-vivo activity (oral) in mouse candidosis; conditions: Mäuse SPF-CF1 infected i.v. with 1 - 2 x 10^6 Candida-Zellen, 50 - 100mg/ kg one hour before and seven hours after infection, survival, compared with (A) and (B)
Procedure: Mäuse vom Typ SPF-CF1 wurden intravenös mit 1 - 2 x 10^6 logarithmisch wachsenden Candida-Zellen, die in physiologischer Kochsalzlösung suspendiert werden, infiziert. Eine Stunde vor und sieben Stunden nach der Infektion werden die Tiere mit jeweils 50 - 100mg/ kg Körpergewicht der Präparate oral behandelt.
Unbehandelte Tiere starben 3 bis 6 Tage post infektionen. Die Ueberlebensrate am 6.Tag post infektionem betrug bei unbehandelten Kontrolltieren etwa 5 %. In diesem Test zeigen z.B. die erfindungsgemäßen Verbindungen 3, 9.

[1] = test system: Dermatophyten und Schimmelpilze; Hefen; experiment: Antimycotic in-vitro activity, serial dilution test; assay type: cell-based; conditions: Reihenverdünnungstest, 5 x 10^4 Keimen/ml Substrat, 20°C, 24 bis 96 Stunden; compared with prior-art compounds (A) and (B)
Procedure: Die in-vitro-Prüfungen wurden im Reihenverdünnungstest mit Keiminokula von durchschnittlich 5 x 10^4 Keimen/ml Substrat durchgeführt. Als Nährmedium dienten • a) für Dermatophyten und Schimmelpilze: Sabourand's milieu d'épreuve • b) für Hefen: Fleischextrakt-Traubenzucker-Bouillon.
Die Bebrütungstemperatur betrug 20°C, die Bebrütungsdauer lag bei 24 bis 96 Stunden.

Compound	Wirkung (Candida)	antimykotische Wirkung [1]
CC(C)(C)C(O)/C(=C/c1ccc([N+](=O)[O-])cc1)n1cncn1 (stereo not drawn) [Beispiel 9]	bessere Wirkung als die aus dem Stand der Technik bekannten Verbindungen (A) und (B)	
CC(C)(C)C(O)/C(=C\c1ccc(C(F)(F)F)cc1)n1cncn1 (stereo not drawn) [Beispiel 18]	bessere Wirkung als die aus dem Stand der Technik bekannten Verbindungen (A) und (B)	bessere antimykotische Wirkung als die aus dem Stand der Technik bekannten Verbindungen (A) und (B)
CC(C)(C)C(O)/C(=C\c1ccc(SC(F)(F)F)cc1)n1cncn1 (stereo not drawn) [Beispiel 16]		bessere antimykotische Wirkung als die aus dem Stand der Technik bekannten Verbindungen (A) und (B)
CC(C)(C)C(O)C(=Cc1ccc(C(F)(F)F)cc1)n1cncn1 (stereo not drawn) [Beispiel 3, 4,4-Dimethyl-2-(1,2,4-triazol-1-yl)-1-(4-trifluormethylphenyl)-1-penten-3-ol]	bessere Wirkung als die aus dem Stand der Technik bekannten Verbindungen (A) und (B)	bessere antimykotische Wirkung als die aus dem Stand der Technik bekannten Verbindungen (A) und (B)
CC(C)(C)C(O)/C(=C\c1ccc(OC(F)(F)F)cc1)n1cncn1 (stereo not drawn) [Beispiel 14]	bessere Wirkung als die aus dem Stand der Technik bekannten Verbindungen (A) und (B)	bessere antimykotische Wirkung als die aus dem Stand der Technik bekannten Verbindungen (A) und (B)
CC(C)(C)C(O)/C(=C\c1ccccc1C(F)(F)F)n1cncn1 (stereo not drawn) [Beispiel 2, 4.4-Dimethyl-2-(1,2,4-triazol-1-yl)-1-(2-trifluormethylphenyl)-1-penten-3-ol]		bessere antimykotische Wirkung als die aus dem Stand der Technik bekannten Verbindungen (A) und (B)
CC(C)(C)C(O)/C(=C\c1ccc(OC(F)(F)F)c(Cl)c1)n1cncn1 (stereo not drawn) [Beispiel 22]		bessere antimykotische Wirkung als die aus dem Stand der Technik bekannten Verbindungen (A) und (B)
CC(C)(C)C(O)/C(=C\c1ccc(C(F)(F)F)cc1Cl)n1cncn1 (stereo not drawn) [Beispiel 12]	bessere Wirkung als die aus dem Stand der Technik bekannten Verbindungen (A) und (B)	bessere antimykotische Wirkung als die aus dem Stand der Technik bekannten Verbindungen (A) und (B)
CC(C)(C)C(O)/C(=C\c1ccc([N+](=O)[O-])cc1)n1cncn1 (stereo not drawn) [Beispiel 10]	bessere Wirkung als die aus dem Stand der Technik bekannten Verbindungen (A) und (B)	bessere antimykotische Wirkung als die aus dem Stand der Technik bekannten Verbindungen (A) und (B)
CC(C)(C)C(O)/C(=C\c1ccc(C(F)(F)F)c(Cl)c1)n1cncn1 (stereo not drawn) [Beispiel 20]		bessere antimykotische Wirkung als die aus dem Stand der Technik bekannten Verbindungen (A) und (B)
